Test results published in patent US9527869B2, “Indolizine derivatives as phoshoinositide 3-kinases inhibitors” (CHIESI FARMACEUTICI S.P.A., priority 2014, dated 2016).
pIC50: −log10 of the molar value.

Legend:
Assay type in all cases: biochemical
PI3Kβ = biological target: T1, PI3Kβ (Homo sapiens, UniProt P42338); assay: In vitro determination of the PI3K enzyme inhibitory activity in the cell free assay (ADP-Glo Kinase Assay), PI3Kβ; settings: ATP 100 μM, read-out: PI3K beta inhibition
T1 construct: purchased Millipore Ltd (Billerica, Mass.)
Protocol: (§1) In vitro Determination of the PI3K Enzyme Inhibitory Activity in the Cell Free Assay
(§2) Human recombinant proteins PI3Kα, PI3Kβ, PI3Kγ and PI3Kδ were purchased from Millipore Ltd (Billerica, Mass.). Compounds were dissolved at 0.5 mM in DMSO and were tested at different concentrations for their activity against PI3Ks using the ADP-Glo™ Kinase Assay (Promega, Madison Wis.) according to the manufacturer's instructions.
(§3) Briefly, the kinase reactions were performed in 384-well white plates (Greiner Bio-One GmbH, Frickenhausen). Each well was loaded with 0.1 μl of test compounds and 2.5 μl of 2× reaction buffer (40 mM Tris pH7.5, 0.5 mM EGTA, 0.5 mM Na3VO4, 5 mM β-glycerophosphate, 0.1 mg/ml BSA, 1 mM DTT), containing 50 μM PI and PS substrates (L-α-phosphatidylinositol sodium salt and L-α-phosphatidyl-L-serine, Sigma-Aldrich, St. Louis Mo.) and the PI3K recombinant proteins (PI3Kγ 0.25 ng/μl, PI3Kδ 1 ng/μl, PI3Kα 0.125 ng/μl, PI3Kβ 1 ng/μl).
(§4) The reactions were started by adding 2.5 μl of 2×ATP solution to each well (final concentrations: PI3Kγ ATP 30 μM; PI3Kδ ATP 80 μM; PI3KαATP 50 μM; PI3Kβ ATP 100 μM) and incubated for 60 min at room temperature. Subsequently, each kinase reaction was incubated for 40 min with 5 μl ADP-Glo™ Reagent, allowing depletion of unconsumed ATP. Then, the Kinase Detection Reagent (10 μl) was added in each well to convert ADP to ATP and to allow the newly synthesized ATP to be measured using a luciferase/luciferin reaction. Following 60 min incubation, the luminescence signal was measured using a Wallac EnVision® multilabel reader (PerkinElmer, Waltham Mass.).
(§5) Curve fitting and IC50 calculation were carried out using a four-parameter logistic model in XLfit (IDBS, Guilford, UK) for Microsoft Excel (Microsoft, Redmont, Wash.).

PI3Kγ = biological target: T2, PI3Kγ (Homo sapiens, UniProt P48736); assay: In vitro determination of the PI3K enzyme inhibitory activity in the cell free assay (ADP-Glo Kinase Assay), PI3Kγ; settings: ATP 30 μM, read-out: PI3K gamma inhibition
T2 construct: purchased Millipore Ltd (Billerica, Mass.)
Protocol: as §1, §2, §3, §4, §5

PI3Kα = biological target: T3, PI3Kα (Homo sapiens, UniProt P42336); assay: In vitro determination of the PI3K enzyme inhibitory activity in the cell free assay (ADP-Glo Kinase Assay), PI3Kα; settings: ATP 50 μM, read-out: PI3K alpha inhibition
T3 construct: purchased Millipore Ltd (Billerica, Mass.)
Protocol: as §1, §2, §3, §4, §5

PI3Kδ = biological target: T4, PI3Kδ (Homo sapiens, UniProt O00329); assay: In vitro determination of the PI3K enzyme inhibitory activity in the cell free assay (ADP-Glo Kinase Assay), PI3Kδ; settings: ATP 80 μM, read-out: PI3K delta inhibition
T4 construct: purchased Millipore Ltd (Billerica, Mass.)
Protocol: as §1, §2, §3, §4, §5

T1 sequence (P42338 whole entry): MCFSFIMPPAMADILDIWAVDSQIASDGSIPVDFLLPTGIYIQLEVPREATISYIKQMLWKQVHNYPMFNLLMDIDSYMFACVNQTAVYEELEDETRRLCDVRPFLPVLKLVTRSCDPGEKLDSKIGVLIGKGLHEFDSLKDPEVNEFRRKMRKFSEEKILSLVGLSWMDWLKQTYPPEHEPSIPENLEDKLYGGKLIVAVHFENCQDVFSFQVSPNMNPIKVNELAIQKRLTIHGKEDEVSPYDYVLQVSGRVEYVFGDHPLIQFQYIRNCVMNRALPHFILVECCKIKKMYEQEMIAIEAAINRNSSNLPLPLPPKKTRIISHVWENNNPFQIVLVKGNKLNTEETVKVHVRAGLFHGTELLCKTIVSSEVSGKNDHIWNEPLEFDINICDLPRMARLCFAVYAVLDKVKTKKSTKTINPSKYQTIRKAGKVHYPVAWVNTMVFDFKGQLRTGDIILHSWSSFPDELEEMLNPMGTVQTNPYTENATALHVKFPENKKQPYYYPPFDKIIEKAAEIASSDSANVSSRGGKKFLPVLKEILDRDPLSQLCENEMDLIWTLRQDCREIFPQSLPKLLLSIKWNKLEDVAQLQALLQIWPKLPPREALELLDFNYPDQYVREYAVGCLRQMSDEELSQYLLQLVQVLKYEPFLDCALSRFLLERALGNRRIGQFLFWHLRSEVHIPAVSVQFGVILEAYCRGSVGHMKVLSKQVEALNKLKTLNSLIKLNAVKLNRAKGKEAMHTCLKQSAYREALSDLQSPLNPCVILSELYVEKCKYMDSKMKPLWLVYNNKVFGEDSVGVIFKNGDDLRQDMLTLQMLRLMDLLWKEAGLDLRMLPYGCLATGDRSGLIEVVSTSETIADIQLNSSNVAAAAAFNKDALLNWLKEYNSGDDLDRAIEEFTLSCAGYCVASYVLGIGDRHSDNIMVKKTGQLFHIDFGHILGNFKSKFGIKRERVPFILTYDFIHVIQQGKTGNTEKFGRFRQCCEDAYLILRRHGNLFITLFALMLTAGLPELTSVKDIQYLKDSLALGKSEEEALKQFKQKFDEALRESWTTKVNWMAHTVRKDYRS
T1 sequence (P27986 whole entry partner): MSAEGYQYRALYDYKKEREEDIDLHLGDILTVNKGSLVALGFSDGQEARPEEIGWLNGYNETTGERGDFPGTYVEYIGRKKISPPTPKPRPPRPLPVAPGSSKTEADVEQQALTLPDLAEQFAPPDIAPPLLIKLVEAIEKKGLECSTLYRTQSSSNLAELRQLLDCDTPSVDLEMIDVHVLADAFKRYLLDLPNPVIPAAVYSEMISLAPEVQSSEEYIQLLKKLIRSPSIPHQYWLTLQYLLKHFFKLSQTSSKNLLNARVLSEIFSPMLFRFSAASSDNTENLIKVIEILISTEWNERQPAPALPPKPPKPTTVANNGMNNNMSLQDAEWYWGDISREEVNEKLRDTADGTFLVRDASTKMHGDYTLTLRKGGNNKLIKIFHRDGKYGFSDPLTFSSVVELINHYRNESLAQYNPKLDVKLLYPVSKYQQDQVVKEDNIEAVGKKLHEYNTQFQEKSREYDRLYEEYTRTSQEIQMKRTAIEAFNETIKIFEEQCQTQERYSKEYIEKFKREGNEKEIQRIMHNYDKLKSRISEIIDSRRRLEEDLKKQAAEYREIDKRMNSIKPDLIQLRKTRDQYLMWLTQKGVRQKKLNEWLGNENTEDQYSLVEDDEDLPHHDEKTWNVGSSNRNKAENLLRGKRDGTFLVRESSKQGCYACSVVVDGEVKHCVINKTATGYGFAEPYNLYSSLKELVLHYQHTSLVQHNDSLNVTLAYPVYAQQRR
T3 sequence (P42336 whole entry): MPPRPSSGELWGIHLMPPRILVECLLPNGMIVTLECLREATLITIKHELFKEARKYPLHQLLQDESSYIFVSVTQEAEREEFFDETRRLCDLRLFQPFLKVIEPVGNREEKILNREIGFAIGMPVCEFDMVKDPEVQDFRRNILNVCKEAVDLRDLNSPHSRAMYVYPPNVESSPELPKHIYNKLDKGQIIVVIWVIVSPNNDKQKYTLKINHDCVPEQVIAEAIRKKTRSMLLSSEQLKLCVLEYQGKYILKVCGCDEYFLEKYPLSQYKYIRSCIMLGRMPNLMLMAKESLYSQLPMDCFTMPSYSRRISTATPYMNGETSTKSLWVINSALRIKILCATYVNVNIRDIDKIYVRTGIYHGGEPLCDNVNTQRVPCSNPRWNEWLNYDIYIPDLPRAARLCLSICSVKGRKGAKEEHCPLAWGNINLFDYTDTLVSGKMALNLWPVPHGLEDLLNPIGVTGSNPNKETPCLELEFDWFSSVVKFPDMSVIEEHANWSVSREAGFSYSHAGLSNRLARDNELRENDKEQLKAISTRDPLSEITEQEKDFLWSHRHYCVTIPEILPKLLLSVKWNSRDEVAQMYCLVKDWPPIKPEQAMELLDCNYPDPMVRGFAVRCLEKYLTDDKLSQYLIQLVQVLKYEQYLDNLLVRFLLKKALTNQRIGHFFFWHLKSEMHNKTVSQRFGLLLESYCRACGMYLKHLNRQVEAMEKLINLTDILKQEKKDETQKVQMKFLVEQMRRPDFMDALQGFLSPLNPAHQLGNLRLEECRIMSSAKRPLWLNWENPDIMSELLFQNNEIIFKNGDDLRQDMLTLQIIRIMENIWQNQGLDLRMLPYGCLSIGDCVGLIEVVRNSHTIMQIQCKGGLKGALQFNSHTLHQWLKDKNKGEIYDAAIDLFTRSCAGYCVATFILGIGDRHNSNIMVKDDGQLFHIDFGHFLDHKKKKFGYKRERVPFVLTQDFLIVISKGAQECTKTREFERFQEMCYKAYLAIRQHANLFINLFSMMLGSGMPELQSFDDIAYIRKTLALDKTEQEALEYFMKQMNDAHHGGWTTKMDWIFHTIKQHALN
T3 sequence (P27986 whole entry partner): as the sequence (P27986 whole entry partner) above
T4 sequence (O00329 whole entry): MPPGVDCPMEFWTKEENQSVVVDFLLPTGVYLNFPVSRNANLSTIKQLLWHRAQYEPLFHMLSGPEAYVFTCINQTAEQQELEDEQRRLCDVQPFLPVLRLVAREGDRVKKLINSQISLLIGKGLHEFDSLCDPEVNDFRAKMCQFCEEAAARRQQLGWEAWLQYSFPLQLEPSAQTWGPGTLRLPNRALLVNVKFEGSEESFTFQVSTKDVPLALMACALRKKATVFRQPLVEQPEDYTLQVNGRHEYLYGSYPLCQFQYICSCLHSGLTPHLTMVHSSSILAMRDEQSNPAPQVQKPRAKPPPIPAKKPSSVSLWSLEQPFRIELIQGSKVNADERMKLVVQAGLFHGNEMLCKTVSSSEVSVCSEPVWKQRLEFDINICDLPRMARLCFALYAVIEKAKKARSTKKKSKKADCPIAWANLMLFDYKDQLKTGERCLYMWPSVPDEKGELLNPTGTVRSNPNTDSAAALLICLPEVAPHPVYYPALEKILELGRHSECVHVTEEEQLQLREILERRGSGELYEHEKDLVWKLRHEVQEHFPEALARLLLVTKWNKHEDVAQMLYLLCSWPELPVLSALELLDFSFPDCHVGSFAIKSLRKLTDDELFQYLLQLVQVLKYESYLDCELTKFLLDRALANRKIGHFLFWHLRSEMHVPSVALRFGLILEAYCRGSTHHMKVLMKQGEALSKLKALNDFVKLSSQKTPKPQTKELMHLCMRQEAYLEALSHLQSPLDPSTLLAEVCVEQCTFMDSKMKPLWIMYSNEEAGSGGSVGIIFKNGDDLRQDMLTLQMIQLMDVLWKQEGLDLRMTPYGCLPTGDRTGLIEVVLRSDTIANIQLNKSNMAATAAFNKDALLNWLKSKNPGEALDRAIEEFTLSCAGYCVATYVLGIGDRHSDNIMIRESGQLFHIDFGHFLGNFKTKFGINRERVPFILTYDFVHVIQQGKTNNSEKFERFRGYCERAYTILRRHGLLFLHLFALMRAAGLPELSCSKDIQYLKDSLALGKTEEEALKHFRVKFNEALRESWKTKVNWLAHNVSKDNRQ
T4 sequence (P27986 whole entry partner): as the sequence (P27986 whole entry partner) above
T2 sequence (P48736 whole entry): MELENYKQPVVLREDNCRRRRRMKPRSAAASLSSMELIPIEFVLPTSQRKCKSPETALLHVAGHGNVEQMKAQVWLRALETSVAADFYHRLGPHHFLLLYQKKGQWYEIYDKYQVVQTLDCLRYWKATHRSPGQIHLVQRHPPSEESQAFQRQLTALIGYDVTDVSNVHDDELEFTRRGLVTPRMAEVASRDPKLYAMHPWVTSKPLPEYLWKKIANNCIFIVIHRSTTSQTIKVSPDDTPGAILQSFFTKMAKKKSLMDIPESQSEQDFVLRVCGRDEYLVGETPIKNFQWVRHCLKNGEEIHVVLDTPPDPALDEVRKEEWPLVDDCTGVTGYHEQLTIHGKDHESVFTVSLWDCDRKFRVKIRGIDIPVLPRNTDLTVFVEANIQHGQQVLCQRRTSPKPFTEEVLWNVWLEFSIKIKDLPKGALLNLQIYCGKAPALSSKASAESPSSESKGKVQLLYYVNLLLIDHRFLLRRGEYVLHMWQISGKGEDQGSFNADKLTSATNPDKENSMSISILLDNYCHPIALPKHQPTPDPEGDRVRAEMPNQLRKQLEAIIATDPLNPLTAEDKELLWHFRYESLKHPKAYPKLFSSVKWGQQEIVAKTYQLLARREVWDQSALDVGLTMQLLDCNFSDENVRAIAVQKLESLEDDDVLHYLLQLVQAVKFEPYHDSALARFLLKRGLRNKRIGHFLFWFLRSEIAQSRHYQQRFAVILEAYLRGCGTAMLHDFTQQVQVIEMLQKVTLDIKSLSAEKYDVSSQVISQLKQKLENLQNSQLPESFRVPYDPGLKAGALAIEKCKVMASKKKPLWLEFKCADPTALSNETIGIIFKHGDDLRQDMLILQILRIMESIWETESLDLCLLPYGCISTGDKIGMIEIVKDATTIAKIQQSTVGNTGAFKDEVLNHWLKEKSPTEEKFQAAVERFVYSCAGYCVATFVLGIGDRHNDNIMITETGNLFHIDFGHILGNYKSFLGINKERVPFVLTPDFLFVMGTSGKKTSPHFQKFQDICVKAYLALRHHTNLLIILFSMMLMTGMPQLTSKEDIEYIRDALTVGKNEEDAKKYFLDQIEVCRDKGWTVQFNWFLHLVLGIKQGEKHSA

For `C[C@H](c1cc2ccccn2c1-c1cccc(CN(C)C)c1)n1nc(-c2cc(O)cc(F)c2)c2c(N)ncnc21` (single isomer, unassigned) [Example 93b, 3-{4-amino-1-[1-(3-{3-[(dimethylamino)methyl]phenyl}indolizin-2-yl)ethyl]-1H-pyrazolo[3,4-d]pyrimidin-3-yl}-5-fluorophenol], the pIC50 (PI3Kβ) was 6.00 to 8.00, the pIC50 (PI3Kγ) was < 6.00 and the pIC50 (PI3Kα) was < 6.00. For the same compound, the pIC50 (PI3Kδ) was 6.00 to 8.00.
In the case of `C[C@H](c1cc2ccccn2c1-c1ccc(CN2CCOCC2)cn1)n1nc(-c2cc(O)cc(F)c2)c2c(N)ncnc21` (single isomer, unassigned) [Example 108a, 3-[4-amino-1-(1-{3-[5-(morpholin-4-ylmethyl)pyridin-2-yl]indolizin-2-yl}ethyl)-1H-pyrazolo[3,4-d]pyrimidin-3-yl]-5-fluorophenol], the pIC50 (PI3Kβ) was 6.00 to 8.00, the pIC50 (PI3Kγ) was < 6.00 and the pIC50 (PI3Kα) was < 6.00. The pIC50 (PI3Kδ) was > 8.00.
With `C[C@H](c1cc2ccccn2c1-c1ccc(CN2CCOCC2)cn1)n1nc(-c2cc(O)cc(F)c2)c2c(N)ncnc21` (single isomer, unassigned) [Example 108b, 3-[4-amino-1-(1-{3-[5-(morpholin-4-ylmethyl)pyridin-2-yl]indolizin-2-yl}ethyl)-1H-pyrazolo[3,4-d]pyrimidin-3-yl]-5-fluorophenol] the pIC50 (PI3Kβ) was 6.00 to 8.00, the pIC50 (PI3Kγ) was < 6.00 and the pIC50 (PI3Kα) was < 6.00. The pIC50 (PI3Kδ) was > 8.00.
Compound `C[C@H](c1cc2ccccn2c1-c1ccc(CN2CCN(C)CC2)cn1)n1nc(-c2cc(O)cc(F)c2)c2c(N)ncnc21` (single isomer, unassigned) [Example 114a, 3-{4-amino-1-[1-(3-{5-[(4-methylpiperazin-1-yl)methyl]pyridin-2-yl}indolizin-2-yl)ethyl]-1H-pyrazolo[3,4-d]pyrimidin-3-yl}-5-fluorophenol] has a pIC50 (PI3Kβ) of 6.00 to 8.00, a pIC50 (PI3Kγ) of 6.00 to 8.00 and a pIC50 (PI3Kα) of 6.00 to 8.00. For the same compound, the pIC50 (PI3Kδ) was > 8.00.
`C[C@H](c1cc2ccccn2c1-c1ccc(CN2CCN(C)CC2)cn1)n1nc(-c2cc(O)cc(F)c2)c2c(N)ncnc21` (single isomer, unassigned) [Example 114b, 3-{4-amino-1-[1-(3-{5-[(4-methylpiperazin-1-yl)methyl]pyridin-2-yl}indolizin-2-yl)ethyl]-1H-pyrazolo[3,4-d]pyrimidin-3-yl}-5-fluorophenol] showed a pIC50 (PI3Kβ) of 6.00 to 8.00, a pIC50 (PI3Kγ) of 6.00 to 8.00 and a pIC50 (PI3Kα) of 6.00 to 8.00. For the same compound, the pIC50 (PI3Kδ) was > 8.00.
In the case of `C[C@H](c1cc2ccccn2c1-c1ccc(CN(CCO)CCO)cn1)n1nc(-c2cc(O)cc(F)c2)c2c(N)ncnc21` (single isomer, unassigned) [Example 117a, 3-(4-amino-1-{1-[3-(5-{[bis(2-hydroxyethyl)amino]methyl}pyridin-2-yl)indolizin-2-yl]ethyl}-1H-pyrazolo[3,4-d]pyrimidin-3-yl)-5-fluorophenol], the pIC50 (PI3Kβ) was 6.00 to 8.00, the pIC50 (PI3Kγ) was < 6.00 and the pIC50 (PI3Kα) was 6.00 to 8.00. For the same compound, the pIC50 (PI3Kδ) was > 8.00.
In the case of `C[C@H](c1cc2ccccn2c1-c1ccc(CN(CCO)CCO)cn1)n1nc(-c2cc(O)cc(F)c2)c2c(N)ncnc21` (single isomer, unassigned) [Example 117b, 3-(4-amino-1-{1-[3-(5-{[bis(2-hydroxyethyl)amino]methyl}pyridin-2-yl)indolizin-2-yl]ethyl}-1H-pyrazolo[3,4-d]pyrimidin-3-yl)-5-fluorophenol], the pIC50 (PI3Kβ) was 6.00 to 8.00, the pIC50 (PI3Kγ) was < 6.00 and the pIC50 (PI3Kα) was 6.00 to 8.00. The pIC50 (PI3Kδ) was > 8.00.
With `C[C@H](c1cc2ccccn2c1-c1ccn(CCN2CCOCC2)c(=O)c1)n1nc(-c2cc(O)cc(F)c2)c2c(N)ncnc21` (single isomer, unassigned) [Example 121a, 4-(2-{1-[4-amino-3-(3-fluoro-5-hydroxyphenyl)-1H-pyrazolo[3,4-d]pyrimidin-1-yl]ethyl}indolizin-3-yl)-1-[2-(morpholin-4-yl)ethyl]-1,2-dihydropyridin-2-one] the pIC50 (PI3Kβ) was < 6.00, the pIC50 (PI3Kγ) was < 6.00 and the pIC50 (PI3Kα) was < 6.00. For the same compound, the pIC50 (PI3Kδ) was 6.00 to 8.00.
Compound `C[C@H](c1cc2ccccn2c1-c1ccn(CCN2CCOCC2)c(=O)c1)n1nc(-c2cc(O)cc(F)c2)c2c(N)ncnc21` (single isomer, unassigned) [Example 121b, 4-(2-{1-[4-amino-3-(3-fluoro-5-hydroxyphenyl)-1H-pyrazolo[3,4-d]pyrimidin-1-yl]ethyl}indolizin-3-yl)-1-[2-(morpholin-4-yl)ethyl]-1,2-dihydropyridin-2-one] has a pIC50 (PI3Kβ) of 6.00 to 8.00, a pIC50 (PI3Kγ) of 6.00 to 8.00 and a pIC50 (PI3Kα) of 6.00 to 8.00. The pIC50 (PI3Kδ) was > 8.00.
Work on `C[C@H](c1c(C#N)c2ccccn2c1-c1cccc(CN(C)C)c1)n1nc(-c2cc(O)cc(F)c2)c2c(N)ncnc21` (single isomer, unassigned) [Example 127a, 2-{1-[4-amino-3-(3-fluoro-5-hydroxyphenyl)-1H-pyrazolo[3,4-d]pyrimidin-1-yl]ethyl}-3-{3-[(dimethylamino)methyl]phenyl}indolizine-1-carbonitrile] yielded a pIC50 (PI3Kβ) of 6.00 to 8.00, a pIC50 (PI3Kγ) of 6.00 to 8.00 and a pIC50 (PI3Kα) of 6.00 to 8.00. For the same compound, the pIC50 (PI3Kδ) was > 8.00.
With `C[C@H](c1c(C#N)c2ccccn2c1-c1cccc(CN(C)C)c1)n1nc(-c2cc(O)cc(F)c2)c2c(N)ncnc21` (single isomer, unassigned) [Example 127b, 2-{1-[4-amino-3-(3-fluoro-5-hydroxyphenyl)-1H-pyrazolo[3,4-d]pyrimidin-1-yl]ethyl}-3-{3-[(dimethylamino)methyl]phenyl}indolizine-1-carbonitrile] the pIC50 (PI3Kβ) was < 6.00, the pIC50 (PI3Kγ) was < 6.00 and the pIC50 (PI3Kα) was < 6.00. The pIC50 (PI3Kδ) was > 8.00.
`CC(c1cc2ccccn2c1-c1ccn(CCN(C)C)c(=O)c1)n1nc(-c2cc(O)cc(F)c2)c2c(N)ncnc21` (single isomer, unassigned) [Example 133a, 4-(2-{1-[4-amino-3-(3-fluoro-5-hydroxyphenyl)-1H-pyrazolo[3,4-d]pyrimidin-1-yl]ethyl}indolizin-3-yl)-1-[2-(dimethylamino)ethyl]-1,2-dihydropyridin-2-one] was tested, and the pIC50 (PI3Kβ) was < 6.00, the pIC50 (PI3Kγ) was < 6.00 and the pIC50 (PI3Kα) was < 6.00. For the same compound, the pIC50 (PI3Kδ) was 6.00 to 8.00.
`CC(c1cc2ccccn2c1-c1ccn(CCN(C)C)c(=O)c1)n1nc(-c2cc(O)cc(F)c2)c2c(N)ncnc21` (single isomer, unassigned) [Example 133b, 4-(2-{1-[4-amino-3-(3-fluoro-5-hydroxyphenyl)-1H-pyrazolo[3,4-d]pyrimidin-1-yl]ethyl}indolizin-3-yl)-1-[2-(dimethylamino)ethyl]-1,2-dihydropyridin-2-one] was tested, and the pIC50 (PI3Kβ) was 6.00 to 8.00, the pIC50 (PI3Kγ) was 6.00 to 8.00 and the pIC50 (PI3Kα) was 6.00 to 8.00. The pIC50 (PI3Kδ) was > 8.00.
`Nc1ncnc2c1ncn2Cc1cc2ccccn2c1-c1ccccc1` [Example 1, 9-[(3-phenylindolizin-2-yl)methyl]-9H-purin-6-amine] was tested, and the pIC50 (PI3Kβ) was < 6.00, the pIC50 (PI3Kγ) was < 6.00 and the pIC50 (PI3Kα) was < 6.00. For the same compound, the pIC50 (PI3Kδ) was < 6.00.
With `Nc1ncn(Cc2cc3ccccn3c2-c2ccccc2)c2ncnc1-2` [Example 2, 3-[(3-phenylindolizin-2-yl)methyl]-3H-purin-6-amine] the pIC50 (PI3Kβ) was < 6.00, the pIC50 (PI3Kγ) was < 6.00 and the pIC50 (PI3Kα) was < 6.00. The pIC50 (PI3Kδ) was < 6.00.
For `Nc1ncnc2c1ncn2Cc1cc2ccccn2c1-c1ccccn1` [Example 3, 9-{[3-(pyridin-2-yl)indolizin-2-yl]methyl}-9H-purin-6-amine], the pIC50 (PI3Kβ) was < 6.00, the pIC50 (PI3Kγ) was < 6.00 and the pIC50 (PI3Kα) was < 6.00. The pIC50 (PI3Kδ) was < 6.00.
In the case of `Nc1ncnc2c1ncn2Cc1cc2ccccn2c1-c1cccc(F)c1` [Example 4, 9-{[3-(3-fluorophenyl)indolizin-2-yl]methyl}-9H-purin-6-amine], the pIC50 (PI3Kβ) was < 6.00, the pIC50 (PI3Kγ) was < 6.00 and the pIC50 (PI3Kα) was < 6.00. The pIC50 (PI3Kδ) was 6.00 to 8.00.
With `Nc1ncn(Cc2cc3ccccn3c2-c2cccc(F)c2)c2ncnc1-2` [Example 5, 3-{[3-(3-fluorophenyl)indolizin-2-yl]methyl}-3H-purin-6-amine] the pIC50 (PI3Kβ) was < 6.00, the pIC50 (PI3Kγ) was < 6.00 and the pIC50 (PI3Kα) was < 6.00. For the same compound, the pIC50 (PI3Kδ) was < 6.00.
For `Nc1ncnc2c1ncn2Cc1cc2ccccn2c1-c1ccccc1F` [Example 6, 9-{[3-(2-fluorophenyl)indolizin-2-yl]methyl}-9H-purin-6-amine], the pIC50 (PI3Kβ) was < 6.00, the pIC50 (PI3Kγ) was < 6.00 and the pIC50 (PI3Kα) was < 6.00. For the same compound, the pIC50 (PI3Kδ) was < 6.00.
With `Cc1ccccc1-c1c(Cn2cnc3c(N)ncnc32)cc2ccccn12` [Example 7, 9-{[3-(2-methylphenyl)indolizin-2-yl]methyl}-9H-purin-6-amine] the pIC50 (PI3Kβ) was < 6.00, the pIC50 (PI3Kγ) was < 6.00 and the pIC50 (PI3Kα) was < 6.00. The pIC50 (PI3Kδ) was < 6.00.
For `Cc1ccccc1-c1c(Cn2cnc(N)c3ncnc2-3)cc2ccccn12` [Example 8, 3-{[3-(2-methylphenyl)indolizin-2-yl]methyl}-3H-purin-6-amine], the pIC50 (PI3Kβ) was < 6.00, the pIC50 (PI3Kγ) was < 6.00 and the pIC50 (PI3Kα) was < 6.00. The pIC50 (PI3Kδ) was < 6.00.
